In article PMC11589483, “Preparation and anti-colon cancer effect of a novel curcumin analogue (CA8): in vivo and in vitro evaluation” (Frontiers in Pharmacology, 2024):

Assays:
[1] = tested on: cervical cancer cells HeLa; test: MTT antiproliferative assay, HeLa; format: cell-based; settings: Homo sapiens
Experimental: (§1) The human cancer cell lines A549, HepG2, MCF-7, Caco-2, and HeLa and the normal human liver cell line LO2 were all obtained from Shanghai Cell Bank of China. All cells were cultured in RPMI 1640 or DMEM supplemented with 10% fetal bovine serum, 100 U/mL penicillin, and 100 μg/mL streptomycin and incubated at 37°C under 5% CO2 (HEPA incubator class100 Thermo company). The medium was replaced three times a week. Cells used in all were in the exponential growth phase.
(§2) The cell inhibition rate was evaluated using the MTT assay. Briefly, cells were seeded in a 96-well plate at a density of 3–4 × 10^3 cells per well and incubated at 37°C for 24 h. The MCACs to be tested were dissolved in dimethyl sulfoxide (DMSO, Merck, Germany) and diluted to five concentrations (3.75, 7.5, 15, 30, 60 μM/L) with RPMI 1640 medium, with each dose analyzed in quadruplicate. The concentration of DMSO was always maintained below 1‰, a concentration that is nontoxic to cells. After incubation for 24 or 48 h, MTT reagent (5 mg/mL) was added to each well and the samples were incubated for 3 h at 37°C in the dark. The absorbance of formazan crystals dissolved in 150 µL of DMSO was measured at 570 nm using a microplate reader to identify the cytotoxic effect of the analogues.

[2] = Pharmacokinetics evaluation after gavage; format: in vivo, Sprague Dawley (SD) rats; settings: SD rats
Experimental: After the evaluation of the safety of CA8, 10 male Sprague Dawley (SD) rats were randomly divided into the CA8 and CU groups for the pharmacokinetic test ([Ye et al., 2020]). The rats were subjected to 1 week of adaptation and were fasted for 6 h before the experiment. CA8 (50 mg kg^−1) and CU (50 mg kg^−1) were administered via gavage. Blood samples were collected at 0.03, 0.08, 0.16, 0.25, 0.5, 1, 2, 4, 8 and 12 h and centrifuged at 5,000 rpm for 3 min to obtain the plasma. A mixture of ethyl acetate and methanol was then added to precipitate the proteins and separate the CA8 and CU from the plasma. The samples were then analyzed using HPLC.

[3] = tested on: AKT, JNK, and NF-κB signaling pathways and apoptosis-related proteins; test: Western blot of signaling and apoptosis proteins in Caco-2 cells; format: cell-based, human; settings: 24 h
Experimental: The expression of apoptotic proteins and pathways was detected using western blot. Caco-2 cells treated with CA8 at a dose of 4, 8, or 16 μM/L for 24 h were collected and lysed with RIPA lysis buffer for 10 min. The concentration of total proteins was determined using a BCA protein quantitative kit. Total proteins were separated on an SDS-PAGE gel, transferred to PVDF membranes and incubated with 5% skim milk for 2 h. Subsequently, the PVDF membranes were incubated with primary antibodies (AKT 1:2000; Bcl-2 1:2000; Bax 1:5000; caspase-3 1:2,000; caspase-9 1:1000; P-AKT 1:1000; JNK 1:1000; P-JNK 1:1000; IKBα 1:2000; and β-actin 1:100000) at 4°C overnight. The membranes were rinsed three times with TBST and incubated with secondary antibodies (1:5000 dilution) for 2–3 h at room temperature. Finally, proteins were visualized using an ECL chemiluminescent kit (KF001, affinity). In the final step, the ImageJ software was used to analyze the results.

[4] = tested on: Caco-2 xenograft tumors; test: In vivo anticancer activity, Caco-2 xenograft
Experimental: Twenty 5-week-old male BALB nude mice purchased from SPF (Beijing) Biotechnology Co., Ltd. were used for the in vivo pharmacodynamic experiment of CA8. Caco-2 cells (6 × 10^6 cells in 100 μL PBS) were harvested and subcutaneously injected into the right hip of the mice. Then, they were divided into four groups when the tumor volume reached 100 mm^3 and treated with saline, CU (100 mg/kg), tegafur (50 mg/kg), or CA8 (100 mg/kg) via gavage every other day. Tumor size and body weight were measured and recorded every other day. At the end of the experiment, the mice were sacrificed and tumors were harvested and weighed. Tumor volumes were calculated by measuring length (L) and width (W) according to the following formula: V = 0.5 × L × W^2. The tumor tissue was embedded in paraffin, cut into slices, stained with HE, and observed under a light microscope.

[5] = Solubility in water by HPLC; format: physicochemical; settings: 25°C, mass of solute dissolved at saturation in 100 g of solvent
Experimental: The solubility of the synthesized compounds in water was determined using high performance liquid chromatography (HPLC). First, 1.000 g of each compound was accurately weighed, placed in 100 g of water, and stirred at 25°C for a period of time. Then, the reaction system was allowed to stand for 1 h. The supernatant was quantitatively taken, diluted with methanol to volume, and centrifuged, and the solubility was determined using HPLC.

[6] = tested on: breast cancer cells MCF-7; test: MTT antiproliferative assay, MCF-7; format: cell-based; settings: Homo sapiens
Experimental: as §1, §2

[7] = Caco-2, 4, 8, 16 μM, vs control

COc1cc(/C=C2\CN(C(C)C)C/C(=C\c3cc(OC)c(O)c(OC)c3)C2=O)cc(OC)c1O [CA8]
IC50 ([1]; 24 h): 4.26 ± 0.52 µM
IC50 ([1]; 48 h): 1.96 ± 0.09 µM
AUC (0-t) / bioavailability relative to CU ([2]; oral): 6.23 fold
MRT (0-t) / mean residence time relative to CU ([2]; oral): 3.35 fold
biological half-life relative to CU ([2]; oral): 2.38 fold
time after dosing until cleared from / still detected in plasma ([2]; oral 50 mg kg^−1): > 8 h
AUC(0-t) ([2]; oral (gavage) 50 mg kg^−1): 222,562.75 μg/L*min
CLz ([2]; oral (gavage) 50 mg kg^−1): 190 mL/min/kg
Vz ([2]; oral (gavage) 50 mg kg^−1): 49.53 L/kg
Cmax ([2]; male, Sprague Dawley, rat, plasma, oral (gavage) 50 mg kg^−1): 1360 ng/mL
MRT last ([2]; male, Sprague Dawley, rat, plasma, oral (gavage) 50 mg kg^−1, read-out: MRT(0-t) (converted)): 3.02 h
Tmax ([2]; male, Sprague Dawley, rat, plasma, oral (gavage) 50 mg kg^−1, read-out: Tmax (converted)): 0.167 h
half-life ([2]; male, Sprague Dawley, rat, plasma, oral (gavage) 50 mg kg^−1, read-out: t1/2z): 2.98 h
expression of Bax, caspase-3, and caspase-9 ([3]; Caco-2, 4, 8, 16 μM): increased in a concentration-dependent manner
expression of P-AKT [3, 7]: inhibited the expression of P-AKT
expression of P-JNK and IκBα [3, 7]: induced the expression of P-JNK and IκBα in a concentration-dependent manner
expression of anti-apoptotic protein BCL-2 ([3]; Caco-2, high concentration): significantly inhibited
tumor inhibition rate ([4]; Caco-2 xenograft nude mice, 100 mg/kg via gavage every other day): 63.93%
HE staining of tumor mass ([4]; Caco-2 xenograft, 100 mg/kg): large necrotic area in the tumor mass
inhibitory effect on tumor growth ([4]; Caco-2 xenograft, CA8 100 mg/kg, CU 100 mg/kg, tegafur 50 mg/kg, gavage every other day): more significant inhibitory effect on tumor growth than CU and tegafur
body weight change / toxicity during therapy ([4]; nude mice, 13 days of therapy, 100 mg/kg gavage): did not lead to a significant toxicity
Solubility [5]: 403.44 mg/100g
IC50 ([6]; MCF7, 24 h): 10.9 ± 4.21 µM
IC50 ([6]; MCF7, 48 h): 7.23 ± 1.55 µM
